Consider seven compounds from US8653095B2, “Small molecules with antimalarial activity” (Radix Pharmaceuticals, Inc., priority 2011, dated 2014).

Where two headings read alike, the source gives them in different places.

Series [1] relates to Liver stage of P. yoelii yoelii. In words: In vitro liver-stage antimalarial efficacy evaluation. It is filed as cell-based. Conditions: Plasmodium yoelii. Here is the method:
In Vitro Liver-Stage Antimalarial Efficacy Evaluation. Any new desirable antimalarial drug should be broad spectrum: it should be active against both the blood stage and the liver stage of the parasite. New compounds were assessed on the Plasmodium yoelii liver stage in vitro. The liver stage of P. yoelii is a parasite of rodent extensively used as an experimental model for studying the initial phase of the malaria infection.

A further series concerns P. falciparum PH3. In words: In vitro blood stage antimalarial efficacy, [3H]hypoxanthine uptake, strain PH3. It is filed as cell-based. Conditions: Plasmodium falciparum. Here is the method:
(§1) In Vitro Blood Stage Antimalarial Efficacy Evaluation. New compounds were tested against a panel of strains of P. falciparum.
(§2) Test compounds were initially dissolved in DMSO and diluted 400 fold in RPMI 1640 culture medium supplemented with 25 mM Hepes, 32 mM NaHCO3 and 10% Albumax I (Gibco, NY). These solutions were subsequently serially diluted two-fold with a Beckman Biomek® 1000 Robot (Fullerton, Calif.) over 11 different concentrations. The parasites were exposed to serial dilutions of each compound for 48 hrs and incubated at 37° C. with 5% O2, 5% CO2 and 90% N2 prior to the addition of [^3H]hypoxanthine. After a further incubation of 18 hrs, parasite DNA was harvested from each microtiter well using Packard Filtermate™ 196 Harvester (Meriden, Conn.) onto glass filters. Uptake of [^3H]hypoxanthine was measured with a Packard TopCount Liquid Scintillation Counter (Packard Instrument Co.).

A further series has as its system P. falciparum 3D7. The series can be described thus: In vitro blood stage antimalarial efficacy, [3H]hypoxanthine uptake, strain 3D7. It is filed as cell-based. The note with it: Plasmodium falciparum. Here is the method: as §1, §2
For a further series, the system named is P. falciparum DD2. The series can be described thus: In vitro blood stage antimalarial efficacy, [3H]hypoxanthine uptake, strain DD2. It is filed as cell-based. Conditions: Plasmodium falciparum. The protocol:
as §1, §2

The subject of the next series is P. falciparum TM6. The series can be described thus: In vitro blood stage antimalarial efficacy, [3H]hypoxanthine uptake, strain TM6. It is filed as cell-based. Conditions: Plasmodium falciparum. The protocol: as §1, §2
The test system of a further series is P. falciparum K1. In words: In vitro blood stage antimalarial efficacy, [3H]hypoxanthine uptake, strain K1. It is filed as cell-based. The note with it: Plasmodium falciparum. Here is the method:
as §1, §2

In the next series the test system is P. falciparum TM4. In words: In vitro blood stage antimalarial efficacy, [3H]hypoxanthine uptake, strain TM4. It is filed as cell-based. Conditions: Plasmodium falciparum. The protocol: as §1, §2
The test system of a further series is P. falciparum V1S. In words: microbe, parasite or virus in culture. It is filed as cell-based. The note with it: Plasmodium falciparum. Here is the method: as §1, §2
Another series relates to rodent P. berghei. The note with it: for MCureD (minimum curative dose): rodent P. berghei. Here is the method: Antimalarial potency was measured by determination of the MCD (minimum clearance dose), a commonly used efficacy measurement. The primary therapeutic indices, which were obtained by using the MCDs as the effective parameters, were calculated. A secondary therapeutic indices measure of antimalarial potency was determined by use of the dose for the MCureD (minimum curative dose).

The test system of a further series is Plasmodium cynomolgi. In words: Radical curative activity in relapsed Rhesus monkeys. It is filed as in vivo. Conditions: CQ alone 10 mg/kg/day for 7 days, no drug 2. From the text: Compounds with antihypnozoite activity will delay the relapse or radically cure the infection. […] Relapse was expected in the control group. Relapse in the treated group indicates failure of the test compounds. […] After standard treatment, blood smears were monitored daily for 4 consecutive days of negative results and 2 times weekly for 2 weeks.

The next series deals with P. berghei NK-65. The series can be described thus: In vivo efficacy in Swiss mice infected with P. berghei. Conditions: Plasmodium berghei, 96 h; P. berghei NK-65, Swiss mice, oral once daily for 4 days; read-out: ED50.
The test system of series [2] is P. falciparum African NF54 strain. The series can be described thus: In vivo efficacy in immunocompromised BXN mice infected with P. falciparum NF54. The note with it: Plasmodium falciparum, 96 h, oral once daily for 4 days. The text has this: (§3) Antimalarial efficacy data was obtained by evaluating new compounds in two rodent models: (I) Swiss mice infected with rodent malaria strain P. berghei; (II) Immunocompromised BXN mice infected with either the sensitive P. falciparum African NF54 strain or the multi-drug resistant P. falciparum Thailand T24 strain.

In series [3] the test system is multi-drug resistant P. falciparum Thailand T24 strain. In words: In vivo efficacy in immunocompromised BXN mice infected with P. falciparum T24. The note with it: Plasmodium falciparum, 96 h, oral once daily for 4 days.
Excerpt: as §3

The mark [4] stands for this setting: Sprague-Dawley, rat, in vivo, po.

As a reminder, the IC50 is the concentration that gives 50% inhibition. The compound `O=C1C(O)=C([C@H]2CC[C@H](c3ccc(Cl)cc3)CC2)C(=O)c2ccccc21` [Atovaquone, reference compound] displayed an IC50 in series [1] of 57 nM.
With `CCN(CC)CCCC(C)Nc1ccnc2cc(Cl)ccc12` (stereo not shown) [Chloroquine, reference compound], the IC50 in the series with P. falciparum PH3 came to 33.4 ± 9.1 nM; with P. falciparum 3D7, 9.7 ± 3.4 nM; in the series with P. falciparum DD2, 45.8 ± 10.2 nM; with P. falciparum TM6, 96.4 ± 6.9 nM; in the series with P. falciparum K1, 166 ± 19.3 nM; with P. falciparum TM4, 115 ± 12.7 nM. Also, in the series with P. falciparum V1S, it took 152 ± 14.1 nM to reach half-maximal inhibition (IC50). Also, in the series on rodent P. berghei (administered orally), the “MCureD (minimum curative dose)” value was “None”. The “Results (radical curative test)” value with Plasmodium cynomolgi is recorded as “relapse”. The “Days post-treatment (relapse)” value in the series with Plasmodium cynomolgi (one value per monkey) is on record as 9 days. Further, the “MTD (maximum tolerated dose)” value (rats, administered orally (intragastric), observed 2 weeks) came to 240 mg/kg.
In the case of `COc1cc(NC(C)CCCN)c2ncccc2c1` (stereo not shown) [Primaquine, reference compound], the IC50 in series [1] turned out to be 76 nM.
Regarding `OC(c1cc(C(F)(F)F)nc2c(C(F)(F)F)cccc12)C1CCCCN1` (stereo not shown) [Mefloquine], in the series with rodent P. berghei (setting [4]), the Primary therapeutic index was found to be 60 and the Secondary therapeutic index was determined as 15. Besides, the “MCureD (minimum curative dose)” value in the series with rodent P. berghei (administered orally) is on record as 40.5 mg/kg. Moreover, the “MTD (maximum tolerated dose)” value (Sprague-Dawley, rat, in vivo, po, 2 weeks) is given as 600 mg/kg.
In the case of `CCN(CC)Cc1cc(Nc2ccnc3cc(Cl)ccc23)ccc1O` [Amodiaquine, reference compound], the IC50 with P. falciparum PH3 (read-out: IC50) is 15.9 ± 3.2 nM; in the series on P. falciparum 3D7 (read-out: IC50), 4.9 ± 1.8 nM; in the series on P. falciparum DD2 (read-out: IC50) it was 9.1 ± 1.2 nM; with P. falciparum TM6 (read-out: IC50), 7.5 ± 2.4 nM; in the series on P. falciparum K1 (read-out: IC50), 21.2 ± 2.1 nM; in the series with P. falciparum TM4 (read-out: IC50) it was 15.2 ± 2.6 nM. For the same compound, in the series with P. falciparum V1S, half-maximal inhibition (IC50) was put at 8.7 ± 2.5 nM.
In general, ED50 refers to the midpoint of the dose-response relation. With `C[C@H]1[C@@H](O)O[C@@H]2O[C@@]3(C)CC[C@H]4[C@H](C)CC[C@@H]1[C@@]24OO3` [Dihydroartemisinin, reference compound], the ED50 stood at 0.56 mg/kg in the series on P. berghei NK-65, 1.1 mg/kg in [2] and 1.2 mg/kg in series [3].
In the case of `C[C@H]1[C@H](OC(=O)CCC(=O)O)O[C@@H]2O[C@@]3(C)CC[C@H]4[C@H](C)CC[C@@H]1[C@@]24OO3` [Artesunate], the Primary therapeutic index in the series on rodent P. berghei (MTD divided by MCD, route iv) is on record as 37. In the series with rodent P. berghei (MTD divided by MCureD, route iv), this compound displayed a Secondary therapeutic index of 10. Besides, the “MCureD (minimum curative dose)” value in the series with rodent P. berghei (route iv) is on record as 25.4 mg/kg. The “MTD (maximum tolerated dose)” value (rats, route iv) is given as 250 mg/kg.
